Laboratory results: patent publication US6939863B2, “Prevention of atherosclerosis and restenosis” (priority 2002, dated 2005)
Entries after “also recorded” stand apart in the source; their conditions may differ.

Tests used:
restenosis = settings: summary table; cited from earlier work; also: key: '+' represents the ability; a '−' represents the inability of conversion from a non-contracile phenotype to a contractile phenotype in an in vitro condition; A '↓' represents decrease; a '?' represents no data is available
[1] = system: type I and type III collagen expression in rat vascular smooth muscle cells; settings: 5 millimolar
Method: The expression of smooth muscle cell collagen was determined by Northern blot analysis at the RNA level and Western blot analysis on the protein level. Total RNA (10 micrograms) from vascular smooth muscle cells grown in the media containing 0 (Control), 0.5 millimolar, 2.5 millimolar, or 5 millimolar propylthiouracil (PTU) for 24 hours was electrophoresed on a 1% agarose gel. The levels of pro-α1(I) collagen mRNA were measured as radioactivities, normalized relative to the density of 18S and 28S rRNA (FIG. 12, Panel A).
The effects of lower physiological concentrations of propylthiouracil on the expression of type I and type III collagen genes was also studied at the RNA level. Northern blot analysis was carried out on total RNA from rat vascular smooth muscle cells grown for 24 to 72 hours (1 to 3 days) in media containing 0 (Control, C), 0.38 millimolar, 0.5 millimolar, or 0.76 millimolar propylthiouracil. Type I collagen (FIG. 13, Panel A) and type III collagen (FIG. 13, Panel B) mRNA radioactivity levels were normalized relative to 18S and 28S rRNA (FIG. 13, Panel C).
Type I collagen (FIG. 14, Panel A) and type III collagen (FIG. 14, Panel B) protein levels were normalized relative to the protein levels of tubulin. […]

in vivo = settings: male, New Zealand White, rabbit, 0.1 % in the drinking water, Serum PTU at sacrifice, 0.1% propylthiouracil in drinking water
Method: Serum propylthiouracil levels were measured by HPLC with mephenoxalone (Tung Yang Chemical Industries, Taiwan) as an internal standard. One hundred microliters of serum was placed into a tube containing 25 microliters of mephenoxalone (Tung Yang Chemical Industries, Taiwan) at 1 milligram per milliliter. All tubes were treated with 25 microliters of 1 molar K2HPO4 and mixed well by vortexing. The contents of each tube were extracted with 2 milliliters of methyl tert-butyl ether (MTBE) (Sigma, St. Louis, Mo.). Tube contents were mixed and centrifuged for 10 minutes at 3000 rpm at 25° C. The supernatant was transferred to a glass tube, dried under nitrogen gas, and reconstituted with 300 microliters of mobile phase. HPLC was performed by using a Hitachi HPLC system (Hitachi, Japan). An ODS column (Cosmosil 5C18-MS, 4.6 millimeters×250 millimeters, 5 micrometers, Nacalai Tesque, Japan) was used in this chromatographic separation, as well as an ultraviolet detector detecting at 275 nanometers. The mobile phase (acetonitrile/water/phosphoric acid, 40/60/0.5, vol/vol/vol) was degassed and filtered before use. The column flow rate was 1.0 milliliter per minute and column temperature was maintained at 40° C.

[2] = system: aortas and femoral arteries of cholesterol-fed rabbits; experiment: Atherosclerotic lesions in rabbits on 2% cholesterol diet (Sudan III, intima/media morphometry, immunohistochemistry); type: in vivo, New Zealand White rabbits; settings: for Extent of sudanophilic areas / atherosclerosis in the aorta: 0.1% propylthiouracil in drinking water, 12 weeks; for Alpha-smooth muscle actin-positive cells (VSMCs) in atheromas / VSMC/macrophage ratio in atherosclerotic lesions: CHO+PTU versus CHO alone
Method: At the end of 12 weeks of study, the rabbits were sacrificed. The aortas (from the ascending aorta to the iliac bifurcation) and femoral arteries were removed, rinsed with phosphate-buffered saline (PBS) and stained with Sudan III, or fixed with 4% paraformaldehyde and paraffin-embedded for hematoxylin-eosin staining or immunohistochemical analysis.
For morphometric studies, up to ten cross sections ([…] and 2 millimeters apart from each other) were prepared from each paraffin-embedded segment of the aorta and femoral arteries. The specimens were stained with hematoxylin and eosin. For each cross section of an arterial specimen, the intimal and medial areas were measured.
For immunohistochemical studies, the arterial sections were deparaffinized, rehydrated and blocked in PBS containing 1% bovine serum albumin and 1% goat serum at room temperature for 30 minutes. The sections were then incubated with mouse monoclonal antibodies against smooth muscle cell alpha-actin (clone 1A4, catalogue number M0851, DAKO Corp., Carpenteria, Calif.) and mouse monoclonal antibodies against rabbit macrophages (clone RAM 11, catalogue number M0633, DAKO Corp., Carpenteria, Calif.) at 4° C. overnight. Subsequently, immunohistochemistry was performed using a commercially available peroxidase-labelled streptavidin-biotin kit (DAKO LSAB peroxidase, catalogue number K0675, DAKO, Carpenteria, Calif.) and 3,3′-diaminobenzidine tetrahydrochloride (DAKO liquid DAB+ substrate-chromagen system, catalogue number K3468, DAKO, Carpenteria, Calif.) according to the procedures provide by manufacturer.

[3] = system: rat vascular smooth muscle cells; experiment: Vascular smooth muscle cell proliferation (cell number); type: cell-based; settings: for Cell number of VSMCs: 24 hours
Method: Rat vascular smooth muscle cells (VSMCs) (passages 5-10) were prepared from Sprague-Dawley rats and cultured in Dulbecco's modified Eagle's medium (DMEM) supplemented with 10% fetal bovine serum (FBS) as previously described (Kirschenlohr et al, in “Human Cell Culture Protocols”, New Jersey, Humana Press Inc, 1996, pp. 318-335). Human endothelial cells from umbilical veins were prepared as described (Morgan, in “Human Cell Culture Protocols”, New Jersey, Humana Press Inc, 1996, pp. 101-152)
Rat vascular smooth muscle cells and human endothelial cells were plated at a density of 10,000 cells per square centimeter in 24-well plates. After 24 hours, cells at 70-80% confluency were treated with propylthiouracil dissolved in 100% dimethylsulfoxide (DMSO) at final concentrations of from 0.05 millimolar to 15 millimolar, or with methimazole (Sigma, St. Louis, Mo.) dissolved in water at the concentrations of from 0.01 millimolar to 1 millimolar for 24-72 hours. Cell numbers were visually counted using a hemocytometer. For the thymidine incorporation study, cells were deprived of serum for 36 hours and labeled with [methyl-^3H]thymidine at […] per milliliter for 12-24 hours after synchronization. Thymidine incorporation was then measured (Newby and George, 1996, Curr. Opin. Cardiol., 11:547). Effects of propylthiouracil and methimazole on the number of vascular smooth muscle cells and human endothelial cells and thymidine incorporation by vascular smooth muscle cells were each expressed as a percentage of the number and thymidine incorporation of control cells maintained in medium containing 0.1% DMSO as vehicle.

CCCc1cc(=O)[nH]c(=S)[nH]1 [Propylthiouracil, 6-n-propyl-2-thiouracil]
Effect on animal models of restenosis, Rat (restenosis): +
Staining density for type I collagen (immunocytochemistry) [1]: decrease
Staining density for type III collagen (immunocytochemistry) [1]: decrease
concentration at 12 weeks (in vivo; 2% cholesterol diet): 1330 ± 1200 ng/mL
concentration at 12 weeks (in vivo; normal chow): 1570 ± 700 ng/mL
Extent of sudanophilic areas / atherosclerosis in the aorta ([2]; 2% cholesterol diet): markedly less; also recorded: significantly decreased
Extent of sudanophilic areas / atherosclerosis in the aorta ([2]; 2% cholesterol diet, listed as PTU): markedly less
Alpha-smooth muscle actin-positive cells (VSMCs) in atheromas [2]: significantly fewer
VSMC/macrophage ratio in atherosclerotic lesions [2]: reduce
Alpha-smooth muscle actin-positive cells (VSMCs) in atheromas ([2]; listed as PTU): markedly fewer
VSMC/macrophage ratio in atherosclerotic lesions ([2]; listed as PTU): decreased
Intima/media area ratio ([2]; ascending aorta, aortic arch and femoral arteries, 2% cholesterol diet): deceased significantly
Visible atherosclerotic lesion in aortas and arteries ([2]; normal chow, Groups 2 and 3, data not shown): no visible atherosclerotic lesion
TUNEL-positive cells in aortas of rabbits ([2]; propylthiouracil and cholesterol/propylthiouracil treatment groups): absent
Cell number of VSMCs ([3]; 0.05 millimolar): 103 % of control
Proliferation of VSMCs at low concentration ([3]; 0.05 millimolar, 24 hours treatment): not inhibited
Proliferation of VSMCs at low concentration, long-term ([3]; 0.05 millimolar, exposed for more than 2 days): antiproliferative effect was indeed observed
Cell number of VSMCs ([3]; 0.5 millimolar): 103 % of control
Cell number of VSMCs ([3]; 2.5 millimolar): 76 % of control
Cell number of VSMCs ([3]; 5 millimolar): 57 % of control
IC50 ([3]; Rattus norvegicus, VSMC, 24 h, read-out: IC50 for VSMCs (proliferation)): 5.8 mM
Inhibition of growth/proliferation of VSMCs ([3]; concentration-dependent, PTU 0.05-5 millimolar, methimazole 0.01-1 millimolar): significantly inhibited
